Article PMC9116245, “New 1,2,3-triazole linked ciprofloxacin-chalcones induce DNA damage by inhibiting human topoisomerase I& II and tubulin polymerization” (Journal of Enzyme Inhibition and Medicinal Chemistry, 2022)

How the values were obtained:
HCT-116 = experiment: NCI one-dose screen; type: cell-based, human; conditions: HCT-116, 10 µM; for activity at 10 µM: Homo sapiens, read-out: Growth Percent
Method: (§1) For screening of anticancer properties, all the developed compounds were chosen by the (NCI) for in-vitro antitumor evaluation. The assay was carried out using 59 human cancer cell lines obtained from nine tumour subpanels (breast, ovarian, melanoma, leukaemia, renal, CNS, lung, prostate, and colon cancer cell lines). Compounds were assessed at a 10 µM concentration. […] Also, hybrids 4a, 4b, 4e, 4i and 4j produced significant anti-proliferative effect in several cancer cells, particularly in leukaemia (RPMI-8226) and colon (HCT116) cells with growth percent of 47.87, −14.59, −24.56, −24.42, −15.84, −9.74, −53.36, −10.26, −31.29, and −39.51%, respectively.
(§2) The method description for NCI anticancer screening is provided in detail in the standard NCI-60 testing protocol.

RPMI-8226 = experiment: NCI one-dose screen; type: cell-based, human; conditions: RPMI-8226, 10 µM; for activity at 10 µM: Homo sapiens, read-out: Growth Percent
Method: as §1, §2

HT-29 = experiment: MTT assay; type: cell-based; conditions: Homo sapiens; HT-29, MTT assay, 24 h incubation
Method: (§3) The proliferation of colorectal cancer cells (HCT116, HT29 and Caco-2) was assessed using MTT assay as previously reported. Cells were treated with increasing concentrations of 1, 5, 10, 20, 40, 80 or 100 µM of CP hybrids 4a-j, doxorubicin, or DMSO. See Supplementary Appendix A.

HCT116 = experiment: MTT assay; type: cell-based; conditions: Homo sapiens, HCT-116, 24 h incubation
Method: as §3

Caco-2 = experiment: MTT assay; type: cell-based; conditions: Homo sapiens; Caco-2, MTT assay, 24 h incubation
Method: as §3

K-562 = experiment: NCI one-dose screen; type: cell-based; conditions: Homo sapiens, K562; K-562, 10 µM; read-out: Growth Percent
Method: as §1, §2

NCI/ADR-RES = experiment: NCI one-dose screen; type: cell-based; conditions: Homo sapiens, read-out: Growth Percent
Method: as §1, §2

A549/ATCC = experiment: NCI one-dose screen; type: cell-based; conditions: Homo sapiens, read-out: Growth Percent
Method: as §1, §2

NCI-H23 = experiment: NCI one-dose screen; type: cell-based; conditions: Homo sapiens; NCI-H23, 10 µM; read-out: Growth Percent
Method: as §1, §2

OVCAR-3 = experiment: NCI one-dose screen; type: cell-based; conditions: Homo sapiens; OVCAR-3, 10 µM; read-out: Growth Percent
Method: as §1, §2

T-47D = experiment: NCI one-dose screen; type: cell-based; conditions: Homo sapiens, T47D, read-out: Growth Percent
Method: as §1, §2

SNB-75 = experiment: NCI one-dose screen; type: cell-based; conditions: Homo sapiens; SNB-75, 10 µM; read-out: Growth Percent
Method: as §1, §2

SK-OV-3 = experiment: NCI one-dose screen; type: cell-based; conditions: Homo sapiens; SK-OV-3, 10 µM; read-out: Growth Percent
Method: as §1, §2

CAKI-1 = experiment: NCI one-dose screen; type: cell-based; conditions: Homo sapiens; CAKI-1, 10 µM; read-out: Growth Percent
Method: as §1, §2

UACC-257 = experiment: NCI one-dose screen; type: cell-based; conditions: Homo sapiens; UACC-257, 10 µM; read-out: Growth Percent
Method: as §1, §2

DU-145 = experiment: NCI one-dose screen; type: cell-based; conditions: Homo sapiens; DU-145, 10 µM; read-out: Growth Percent
Method: as §1, §2

MDA-MB-468 = experiment: NCI one-dose screen; type: cell-based; conditions: Homo sapiens; MDA-MB-468, 10 µM; read-out: Growth Percent
Method: as §1, §2

HCT-15 = experiment: NCI one-dose screen; type: cell-based; conditions: Homo sapiens; HCT-15, 10 µM; read-out: Growth Percent
Method: as §1, §2

MALME-3M = experiment: NCI one-dose screen; type: cell-based; conditions: Homo sapiens, read-out: Growth Percent
Method: as §1, §2

NCI-H226 = experiment: NCI one-dose screen; type: cell-based; conditions: Homo sapiens; NCI-H226, 10 µM; read-out: Growth Percent
Method: as §1, §2

786-0 = experiment: NCI one-dose screen; type: cell-based; conditions: Homo sapiens; 786-0, 10 µM; read-out: Growth Percent
Method: as §1, §2

COLO 205 = experiment: NCI one-dose screen; type: cell-based; conditions: Homo sapiens; COLO 205, 10 µM; read-out: Growth Percent
Method: as §1, §2

U251 = experiment: NCI one-dose screen; type: cell-based; conditions: Homo sapiens, U-251; U251, 10 µM; read-out: Growth Percent
Method: as §1, §2

SF-268 = experiment: NCI one-dose screen; type: cell-based; conditions: Homo sapiens; SF-268, 10 µM; read-out: Growth Percent
Method: as §1, §2

RXF 393 = experiment: NCI one-dose screen; type: cell-based; conditions: Homo sapiens; RXF 393, 10 µM; read-out: Growth Percent
Method: as §1, §2

MOLT-4 = experiment: NCI one-dose screen; type: cell-based; conditions: Homo sapiens; MOLT-4, 10 µM; read-out: Growth Percent
Method: as §1, §2

SK-MEL-28 = experiment: NCI one-dose screen; type: cell-based; conditions: Homo sapiens; SK-MEL-28, 10 µM; read-out: Growth Percent
Method: as §1, §2

MCF7 = experiment: NCI one-dose screen; type: cell-based; conditions: Homo sapiens; MCF7, 10 µM; read-out: Growth Percent
Method: as §1, §2

SR = experiment: NCI one-dose screen; type: cell-based; conditions: Homo sapiens, read-out: Growth Percent
Method: as §1, §2

SF-295 = experiment: NCI one-dose screen; type: cell-based; conditions: Homo sapiens; SF-295, 10 µM; read-out: Growth Percent
Method: as §1, §2

SNB-19 = experiment: NCI one-dose screen; type: cell-based; conditions: Homo sapiens; SNB-19, 10 µM; read-out: Growth Percent
Method: as §1, §2

LOX IMVI = experiment: NCI one-dose screen; type: cell-based; conditions: Homo sapiens, read-out: Growth Percent
Method: as §1, §2

BT-549 = experiment: NCI one-dose screen; type: cell-based; conditions: Homo sapiens; BT-549, 10 µM; read-out: Growth Percent
Method: as §1, §2

TK-10 = experiment: NCI one-dose screen; type: cell-based; conditions: Homo sapiens; TK-10, 10 µM; read-out: Growth Percent
Method: as §1, §2

[1] = tested on: 59 human cancer cell lines; experiment: NCI one-dose screen, whole panel; type: cell-based; conditions: for activity at 10 µM: Homo sapiens, mean over the panel, read-out: Mean Growth Percent
Method: as §1, §2

Row | SMILES | Growth Percent (HCT-116) [%] | activity at 10 µM (HCT-116) [%] | activity at 10 µM (RPMI-8226) [%] | IC50 (HT-29) [µM] | IC50 (HCT116) [µM] | IC50 (Caco-2) [µM] | activity at 10 µM (K-562) [%] | activity at 10 µM (NCI/ADR-RES) [%] | activity at 10 µM (A549/ATCC) [%] | activity at 10 µM (NCI-H23) [%] | activity at 10 µM (OVCAR-3) [%] | activity at 10 µM (T-47D) [%] | activity at 10 µM (SNB-75) [%] | activity at 10 µM (SK-OV-3) [%] | activity at 10 µM (CAKI-1) [%] | activity at 10 µM (UACC-257) [%] | activity at 10 µM (DU-145) [%] | activity at 10 µM (MDA-MB-468) [%] | activity at 10 µM (HCT-15) [%] | activity at 10 µM (MALME-3M) [%] | further results
1 | O=C(/C=C/c1cccc(Cl)c1)c1ccc(-n2cc(CN3CCN(c4cc5c(cc4F)c(=O)c(C(=O)O)cn5C4CC4)CC3)nn2)cc1 [Compound 4b, (E)-7-(4-((1–(4-(3-(3-chlorophenyl)acryloyl)phenyl)-1H-1,2,3-triazol-4-yl)methyl)piperazin-1-yl)-1-cyclopropyl-6-fluoro-4-oxo-1,4-dihydroquinoline-3-carboxylic acid] | -53.36 | -53.4 | -14.6 | 42.9 ± 5.14 | 4.81 ± 1.21 | 24.4 ± 3.07 | 40.5 | 94.2 | 71.6 | 91.4 | 57.3 | 75.3 | 89.2 | 72.3 | 52.5 | 87.7 | 77.5 | 64.8 | 71.7 | 94.5 | Growth Percent (RPMI-8226): -14.59%; activity at 10 µM (NCI-H226): 82.1%; activity at 10 µM (786-0): 53.9%; activity at 10 µM (COLO 205): 106%; activity at 10 µM (U251): 34.3%; activity at 10 µM (SF-268): 56.4%; activity at 10 µM (RXF 393): 70.8%; activity at 10 µM (MOLT-4): 68.2%; activity at 10 µM (SK-MEL-28): 95.8%; activity at 10 µM (MCF7): 37.6%; activity at 10 µM (SR): 14.1%; activity at 10 µM (SF-295): 80.2%; activity at 10 µM (SNB-19): 53.8%; activity at 10 µM (LOX IMVI): 36.9%; activity at 10 µM (BT-549): 90.4%; activity at 10 µM (TK-10): 84.9%; activity at 10 µM [1]: 65%
2 | COc1cc(/C=C/C(=O)c2ccc(-n3cc(CN4CCN(c5cc6c(cc5F)c(=O)c(C(=O)O)cn6C5CC5)CC4)nn3)cc2)cc(OC)c1OC [Compound 4j, (E)-1-cyclopropyl-6-fluoro-4-oxo-7–(4-((1–(4-(3-(3,4,5-trimethoxyphenyl)acryloyl)phenyl)-1H-1,2,3-triazol-4-yl)methyl)piperazin-1-yl)-1,4-dihydroquinoline-3-carboxylic acid] | -39.51 | -39.5 | -15.8 | 13.2 ± 2.4 | 2.53 ± 0.31 | 7.14 ± 2.48 | 7.81 | 82 | 15.7 | 50.6 | -16.1 | 28.1 | 65.5 | 67.5 | 60 | 62 | 45.8 | -7.19 | 33.8 | 57.5 | Growth Percent (RPMI-8226): -15.84%; activity at 10 µM (NCI-H226): 32.4%; activity at 10 µM (786-0): 43.6%; activity at 10 µM (COLO 205): 60.9%; activity at 10 µM (U251): 10.6%; activity at 10 µM (SF-268): 59.5%; activity at 10 µM (RXF 393): 4.51%; activity at 10 µM (MOLT-4): 10.5%; activity at 10 µM (SK-MEL-28): 34.6%; activity at 10 µM (MCF7): 16.1%; activity at 10 µM (SR): -12.4%; activity at 10 µM (SF-295): 67.5%; activity at 10 µM (SNB-19): 44.7%; activity at 10 µM (LOX IMVI): -1.51%; activity at 10 µM (BT-549): 51%; activity at 10 µM (TK-10): 80%; activity at 10 µM [1]: 33.7%; Growth Percent ([1]; majority of cancer cell lines, 10 µM): 67.46 to −39.69%
3 | O=C(/C=C/c1ccc(F)cc1)c1ccc(-n2cc(CN3CCN(c4cc5c(cc4F)c(=O)c(C(=O)O)cn5C4CC4)CC3)nn2)cc1 [Compound 4e, (E)-1-cyclopropyl-6-fluoro-7–(4-((1–(4-(3-(4-fluorophenyl)acryloyl)phenyl)-1H-1,2,3-triazol-4-yl)methyl)piperazin-1-yl)-4-oxo-1,4-dihydroquinoline-3-carboxylic acid] | -10.26 | -10.3 | -24.6 | 8.67 ± 2.94 | 4.32 ± 0.98 | 4.19 ± 1.13 | 21.9 | 92.1 | 82.2 | 80.3 | 46.6 | 76.8 | 68.1 | 71.6 | 36.9 | 88.3 | 51.6 | 32.9 | 63.4 | 89.2 | Growth Percent (RPMI-8226): -24.56%; activity at 10 µM (NCI-H226): 81.7%; activity at 10 µM (786-0): 33.2%; activity at 10 µM (COLO 205): 105%; activity at 10 µM (U251): 16.6%; activity at 10 µM (SF-268): 35.7%; activity at 10 µM (RXF 393): 45%; activity at 10 µM (MOLT-4): 31.8%; activity at 10 µM (SK-MEL-28): 68%; activity at 10 µM (MCF7): 24.2%; activity at 10 µM (SR): 7.11%; activity at 10 µM (SF-295): 81.2%; activity at 10 µM (SNB-19): 31.6%; activity at 10 µM (LOX IMVI): 20.3%; activity at 10 µM (BT-549): 32%; activity at 10 µM (TK-10): 85.2%; activity at 10 µM [1]: 53.9%
4 | O=C(/C=C/c1ccccc1)c1ccc(-n2cc(CN3CCN(c4cc5c(cc4F)c(=O)c(C(=O)O)cn5C4CC4)CC3)nn2)cc1 [Compound 4a, (E) 7-(4-((1–(4-Cinnamoylphenyl)-1H-1,2,3-triazol-4-yl)methyl)piperazin-1-yl)-1-cyclopropyl-6-fluoro-4-oxo-1,4-dihydroquinoline-3-carboxylic acid] | -9.74 | -9.74 | 47.9 | 22.4 ± 3.25 | 3.57 ± 0.59 | 8.39 ± 2.46 | 101 | 87.9 | 89.8 | 83.5 | 90.4 | 96.4 | 92.7 | 84.9 | 87.8 | 96.7 | 104 | 72.5 | 93.8 | 94.9 | activity at 10 µM (NCI-H226): 69.6%; activity at 10 µM (786-0): 87.9%; activity at 10 µM (COLO 205): 110%; activity at 10 µM (U251): 98.4%; activity at 10 µM (SF-268): 85.3%; activity at 10 µM (RXF 393): 72%; activity at 10 µM (MOLT-4): 102%; activity at 10 µM (SK-MEL-28): 99.3%; activity at 10 µM (MCF7): 72.9%; activity at 10 µM (SR): 99.6%; activity at 10 µM (SF-295): 95.9%; activity at 10 µM (SNB-19): 98.2%; activity at 10 µM (LOX IMVI): 55.4%; activity at 10 µM (BT-549): 102%; activity at 10 µM (TK-10): 103%; activity at 10 µM [1]: 87.8%
